Assays:
Type in all cases: cell-based
[1] = target: T1, human IGF-1R (NIH-3T3 cells over expressing human IGF-1R) (Homo sapiens, UniProt P08069); experiment: IGF-1R cellular autophosphorylation (DELFIA); conditions: IGF-1 stimulated
T1 construct: expressed in transfected cells; host or cells: NIH-3T3 (mouse fibroblasts)
In short: (§1)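 Autophosphorylation of IGF-1R or IR is measured in NIH-3T3 lines overexpressing each human receptor after 2 h compound pretreatment and a 15 min ligand challenge (IGF-1 30 ng/mL; insulin 3 ug/mL). Fluorescence is normalised to 100% stimulation.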

[2] = test system: COLO205 (colon); experiment: Inhibition of cell proliferation, CellTiter-Glo, COLO205; conditions: Homo sapiens, COLO 205, 72 h
In short: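 Exponentially growing COLO205 cells in medium with 10% FBS were plated below 2000 cells/well at 37 °C, 5% CO2. Untreated wells served as controls.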

[3] = target: T2, IR (NIH-3T3 cells over expressing human IGF-1R or IR) (Homo sapiens, UniProt P06213); experiment: IR cellular autophosphorylation (DELFIA); conditions: NIH-3T3 cells over expressing IR, insulin stimulated
T2 construct: expressed in transfected cells; host or cells: NIH-3T3 (mouse fibroblasts)
T2 sequence (P06213 28-1382): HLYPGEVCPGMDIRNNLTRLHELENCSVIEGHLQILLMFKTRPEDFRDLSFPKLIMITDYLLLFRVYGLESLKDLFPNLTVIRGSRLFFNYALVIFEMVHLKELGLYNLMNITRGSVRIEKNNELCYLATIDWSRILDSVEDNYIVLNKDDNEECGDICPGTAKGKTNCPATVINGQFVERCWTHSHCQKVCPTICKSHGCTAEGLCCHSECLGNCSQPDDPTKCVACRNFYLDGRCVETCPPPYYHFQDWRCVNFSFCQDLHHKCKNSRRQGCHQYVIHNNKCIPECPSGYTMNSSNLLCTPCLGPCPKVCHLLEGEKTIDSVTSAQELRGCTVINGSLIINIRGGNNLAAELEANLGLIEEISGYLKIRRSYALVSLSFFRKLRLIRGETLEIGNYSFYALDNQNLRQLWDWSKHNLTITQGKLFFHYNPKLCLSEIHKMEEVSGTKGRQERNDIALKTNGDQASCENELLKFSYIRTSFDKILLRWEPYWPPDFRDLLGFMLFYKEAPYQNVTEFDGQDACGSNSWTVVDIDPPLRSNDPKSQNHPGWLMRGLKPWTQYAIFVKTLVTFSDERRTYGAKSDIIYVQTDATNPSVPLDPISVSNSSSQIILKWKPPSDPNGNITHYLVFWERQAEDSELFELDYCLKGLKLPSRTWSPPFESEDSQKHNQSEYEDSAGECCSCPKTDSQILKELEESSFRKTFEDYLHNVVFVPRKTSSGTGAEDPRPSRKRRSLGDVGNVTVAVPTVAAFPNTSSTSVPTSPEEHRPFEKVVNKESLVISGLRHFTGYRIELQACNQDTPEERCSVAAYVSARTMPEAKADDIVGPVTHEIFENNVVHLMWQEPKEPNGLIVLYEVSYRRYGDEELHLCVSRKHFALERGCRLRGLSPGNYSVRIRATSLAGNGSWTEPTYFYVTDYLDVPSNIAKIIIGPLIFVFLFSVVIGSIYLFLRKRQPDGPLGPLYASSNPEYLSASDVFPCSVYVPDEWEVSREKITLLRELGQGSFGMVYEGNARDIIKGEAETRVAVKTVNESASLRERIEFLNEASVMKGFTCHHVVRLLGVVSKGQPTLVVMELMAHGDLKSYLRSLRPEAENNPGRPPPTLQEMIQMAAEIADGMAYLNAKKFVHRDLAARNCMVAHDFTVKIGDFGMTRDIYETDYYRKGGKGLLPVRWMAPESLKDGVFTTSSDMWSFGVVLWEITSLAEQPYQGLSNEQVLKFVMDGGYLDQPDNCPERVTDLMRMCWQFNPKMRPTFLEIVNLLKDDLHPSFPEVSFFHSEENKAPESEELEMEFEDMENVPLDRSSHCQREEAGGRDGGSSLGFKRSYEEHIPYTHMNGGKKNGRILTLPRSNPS
In short: as §1

T1 sequence (P08069 31-1367): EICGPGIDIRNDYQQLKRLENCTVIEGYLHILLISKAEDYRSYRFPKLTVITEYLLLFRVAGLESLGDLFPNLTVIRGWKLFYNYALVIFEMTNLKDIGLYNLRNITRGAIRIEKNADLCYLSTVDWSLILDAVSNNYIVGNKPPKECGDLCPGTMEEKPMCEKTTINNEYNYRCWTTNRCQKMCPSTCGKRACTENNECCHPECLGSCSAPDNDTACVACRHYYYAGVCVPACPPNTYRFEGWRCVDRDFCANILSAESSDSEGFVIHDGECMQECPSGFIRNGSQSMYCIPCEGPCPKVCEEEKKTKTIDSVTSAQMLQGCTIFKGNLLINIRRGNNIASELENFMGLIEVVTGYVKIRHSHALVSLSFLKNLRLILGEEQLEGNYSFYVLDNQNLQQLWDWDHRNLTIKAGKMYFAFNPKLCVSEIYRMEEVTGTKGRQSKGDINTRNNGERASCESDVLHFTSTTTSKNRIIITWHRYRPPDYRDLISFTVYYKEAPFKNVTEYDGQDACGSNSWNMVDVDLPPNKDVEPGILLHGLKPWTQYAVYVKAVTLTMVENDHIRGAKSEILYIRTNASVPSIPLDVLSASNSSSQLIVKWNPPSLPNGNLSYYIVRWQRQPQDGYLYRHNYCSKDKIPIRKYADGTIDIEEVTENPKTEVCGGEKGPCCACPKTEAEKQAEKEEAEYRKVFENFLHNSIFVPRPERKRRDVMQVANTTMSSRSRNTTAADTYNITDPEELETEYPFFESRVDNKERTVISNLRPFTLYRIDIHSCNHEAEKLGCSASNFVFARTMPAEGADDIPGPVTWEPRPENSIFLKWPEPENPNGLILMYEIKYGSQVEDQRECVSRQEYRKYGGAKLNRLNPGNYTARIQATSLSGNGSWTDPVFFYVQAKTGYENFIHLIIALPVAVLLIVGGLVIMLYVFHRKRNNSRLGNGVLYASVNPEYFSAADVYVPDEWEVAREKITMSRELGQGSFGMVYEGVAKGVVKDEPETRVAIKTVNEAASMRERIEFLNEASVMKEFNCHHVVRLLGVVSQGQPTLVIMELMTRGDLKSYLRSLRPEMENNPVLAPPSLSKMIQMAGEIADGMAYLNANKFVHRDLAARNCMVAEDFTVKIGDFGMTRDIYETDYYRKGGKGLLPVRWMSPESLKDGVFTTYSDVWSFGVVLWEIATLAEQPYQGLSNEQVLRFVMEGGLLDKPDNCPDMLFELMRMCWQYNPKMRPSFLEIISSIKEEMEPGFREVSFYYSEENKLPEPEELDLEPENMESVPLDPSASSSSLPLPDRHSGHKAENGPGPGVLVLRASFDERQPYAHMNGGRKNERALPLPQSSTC

| IC50 [1] [nM] | IC50 [2] [nM] | IC50 [3] [nM] | Structure (SMILES) |
| --- | --- | --- | --- |
| < 100 | < 250 | 100 to 500 | COc1ccc(-c2nc3ccccn3c2-c2ccnc(Nc3cccc(OCCN(C)C)c3)n2)cc1C(=O)Nc1c(F)cccc1F [Example 1, N-(2,6-difluorophenyl)-5-(3-{2-[(3-{[2-(dimethylamino)ethyl]oxy}phenyl)-amino]-4-pyrimidinyl}imidazo[1,2-a]pyridin-2-yl)-2-(methyloxy)benzamide] |
| < 100 | 250 to 1000 | < 100 | COc1cc(N2CCN(CCS(C)(=O)=O)CC2)ccc1Nc1nccc(-c2c(-c3ccc(OC)c(C(=O)Nc4c(F)cccc4F)c3)nc3ccccn23)n1 [Example 135, N-(2,6-difluorophenyl)-2-(methyloxy)-5-(3-{2-[(2-(methyloxy)-4-{4-[2-(methylsulfonyl)ethyl]-1-piperazinyl}phenyl)amino]-4-pyrimidinyl}imidazo[1,2-a]pyridin-2-yl)benzamide] |
| > 500 | 250 to 1000 | > 500 | CC(C)COc1cc(N2CCC(N3CCCCC3)CC2)ccc1Nc1nccc(-c2c(-c3cccc(C(=O)Nc4c(F)cccc4F)c3)nc3ccccn23)n1 [Example 32, 3-{3-[2-({4-(1,4′-bipiperidin-1′-yl)-2-[(2-methylpropyl)oxy]phenyl}amino)-4-pyrimidinyl]imidazo[1,2-a]pyridin-2-yl}-N-(2,6-difluorophenyl)benzamide] |
| < 100 | < 250 | < 100 | COc1cc(N2CCC(N3CCC(O)CC3)CC2)ccc1Nc1nccc(-c2c(-c3cccc(C(=O)Nc4c(F)cccc4F)c3)nc3ccccn23)n1 [Example 80, N-(2,6-difluorophenyl)-3-[3-(2-{[4-(4-hydroxy-1,4′-bipiperidin-1′-yl)-2-(methyloxy)-phenyl]amino}-4-pyrimidinyl)imidazo[1,2-a]pyridin-2-yl]benzamide] |
| < 100 | 250 to 1000 | < 100 | COc1cc(N2CCN(CCS(C)(=O)=O)CC2)ccc1Nc1nccc(-c2c(-c3cccc(C(=O)Nc4c(F)cccc4F)c3)nc3ccccn23)n1 [Example 136, N-(2,6-difluorophenyl)-3-(3-{2-[(2-(methyloxy)-4-{4-[2-(methylsulfonyl)ethyl]-1-piperazinyl}phenyl)amino]-4-pyrimidinyl}imidazo[1,2-a]pyridin-2-yl)benzamide] |
| 100 to 500 | 250 to 1000 | 100 to 500 | COc1cc(N2CCC[C@H](O)C2)ccc1Nc1nccc(-c2c(-c3cccc(C(=O)Nc4c(F)cccc4F)c3)nc3ccccn23)n1 [Example 169, N-(2,6-difluorophenyl)-3-[3-(2-{[4-[(3S)-3-hydroxy-1-piperidinyl]-2-(methyloxy)phenyl]amino}-4-pyrimidinyl)imidazo[1,2-a]pyridin-2-yl]benzamide] |
| < 100 | 250 to 1000 | 100 to 500 | COc1cc(N2CCC(N3CCCCC3)CC2)ccc1Nc1nccc(-c2c(-c3cccc(C(=O)Nc4c(F)cccc4F)c3)nc3c(C)cccn23)n1 [Example 43, 3-[3-(2-{[4-(1,4′-bipiperidin-1-yl)-2-(methyloxy)phenyl]amino}-4-pyrimidinyl)-8-methylimidazo[1,2-a]pyridin-2-yl]-N-(2,6-difluorophenyl)benzamide] |
| 100 to 500 | 250 to 1000 | 100 to 500 | COc1cc(CCCN2CCN(C)CC2)ccc1Nc1nccc(-c2c(-c3cccc(C(=O)Nc4c(F)cccc4F)c3)nc3ccccn23)n1 [Example 141, N-(2,6-difluorophenyl)-3-{3-[2-({2-(methyloxy)-4-[3-(4-methyl-1-piperazinyl)propyl]phenyl}amino)-4-pyrimidinyl]imidazo[1,2-a]pyridin-2-yl}benzamide] |
| < 100 | 250 to 1000 | 100 to 500 | COc1cc(N2CCC(N3CCC[C@H](O)C3)CC2)ccc1Nc1nccc(-c2c(-c3cccc(C(=O)Nc4c(F)cccc4F)c3)nc3ccccn23)n1 [Example 83, N-(2,6-difluorophenyl)-3-[3-(2-{[4-[(3S)-3-hydroxy-1,4′-bipiperidin-1′-yl]-2-(methyloxy)phenyl]amino}-4-pyrimidinyl)imidazo[1,2-a]pyridin-2-yl]benzamide] |
| < 100 | > 1000 | 100 to 500 | COc1ccn2c(-c3ccnc(Nc4ccc(N5CCC(N6CCCCC6)CC5)cc4OC)n3)c(-c3cccc(C(=O)Nc4c(F)cccc4F)c3)nc2c1 [Example 39, 3-[3-(2-{[4-(1,4′-bipiperidin-1′-yl)-2-(methyloxy)phenyl]amino}-4-pyrimidinyl)-7-(methyloxy)imidazo[1,2-a]pyridin-2-yl]-N-(2,6-difluorophenyl)benzamide] |
| < 100 | < 250 | < 100 | COc1cc(N2CCC(O)CC2)ccc1Nc1nccc(-c2c(-c3ccc(OC)c(C(=O)Nc4c(F)cccc4F)c3)nc3ccccn23)n1 [Example 122, N-(2,6-difluorophenyl)-5-[3-(2-{[4-(4-hydroxy-1-piperidinyl)-2-(methyloxy)phenyl]amino}-4-pyrimidinyl)imidazo[1,2-a]pyridin-2-yl]-2-(methyloxy)benzamide] |
| < 100 | 250 to 1000 | 100 to 500 | COc1cc(N2CCC(O)CC2)ccc1Nc1nccc(-c2c(-c3cccc(C(=O)Nc4c(F)cccc4F)c3)nc3ccccn23)n1 [Example 73, N-(2,6-difluorophenyl)-3-[3-(2-{[4-(4-hydroxy-1-piperidinyl)-2-(methyloxy)phenyl]amino}-4-pyrimidinyl)imidazo[1,2-a]pyridin-2-yl]benzamide] |
| < 100 | 250 to 1000 | < 100 | COc1cc(N2CCC(N3CCCCC3)CC2)ccc1Nc1nccc(-c2c(-c3ccc(OC)c(C(=O)Nc4c(F)cccc4F)c3)nc3cc(C)ccn23)n1 [Example 4, 5-[3-(2-{[4-(1,4′-bipiperidin-1′-yl)-2-(methyloxy)phenyl]amino}-4-pyrimidinyl)-7-methylimidazo[1,2-a]pyridin-2-yl]-N-(2,6-difluorophenyl)-2-(methyloxy)benzamide] |
| < 100 | 250 to 1000 | < 100 | CCOc1ccc(-c2nc3ccccn3c2-c2ccnc(Nc3ccc(CCN4CCN(C)CC4)cc3OC)n2)cc1C(=O)Nc1c(F)cccc1F [Example 133, N-(2,6-difluorophenyl)-2-(ethyloxy)-5-{3-[2-({2-(methyloxy)-4-[2-(4-methyl-1-piperazinyl)ethyl]phenyl}amino)-4-pyrimidinyl]imidazo[1,2-a]pyridin-2-yl}benzamide] |
| 100 to 500 | 250 to 1000 | < 100 | CCOc1cc(N2CCN(CCS(C)(=O)=O)CC2)ccc1Nc1nccc(-c2c(-c3cccc(C(=O)Nc4c(F)cccc4F)c3)nc3ccccn23)n1 [Example 145, N-(2,6-difluorophenyl)-3-(3-{2-[(2-(ethyloxy)-4-{4-[2-(methylsulfonyl)ethyl]-1-piperazinyl}phenyl)amino]-4-pyrimidinyl}imidazo[1,2-a]pyridin-2-yl)benzamide] |
| < 100 | 250 to 1000 | < 100 | COc1cc(N2CCC(N3CCCCC3)CC2)c(F)cc1Nc1nccc(-c2c(-c3ccc(OC)c(C(=O)Nc4c(F)cccc4F)c3)nc3ccccn23)n1 [Example 107, 5-[3-(2-{[4-(1,4′-bipiperidin-1′-yl)-5-fluoro-2-(methyloxy)phenyl]amino}-4-pyrimidinyl)imidazo[1,2-a]pyridin-2-yl]-N-(2,6-difluorophenyl)-2-(methyloxy)benzamide] |
| < 100 | > 1000 | 100 to 500 | COc1cc([C@H]2CC[C@H](N3CCN(CCS(C)(=O)=O)CC3)CC2)ccc1Nc1nccc(-c2c(-c3cccc(C(=O)Nc4c(F)cccc4F)c3)nc3ccccn23)n1 [Example 94, N-(2,6-difluorophenyl)-3-[3-(2-{[2-(methyloxy)-4-(trans-4-{4-[2-(methylsulfonyl)-ethyl]-1-piperazinyl}cyclohexyl)phenyl]amino}-4-pyrimidinyl)imidazo[1,2-a]pyridin-2-yl]benzamide] |
| < 100 | 250 to 1000 | 100 to 500 | COc1cc(CCCN2CCCCC2)ccc1Nc1nccc(-c2c(-c3cccc(C(=O)Nc4c(F)cccc4F)c3)nc3ccccn23)n1 [Example 139, N-(2,6-difluorophenyl)-3-{3-[2-({2-(methyloxy)-4-[3-(1-piperidinyl)propyl]phenyl}amino)-4-pyrimidinyl]imidazo[1,2-a]pyridin-2-yl}benzamide] |
| < 100 | < 250 | < 100 | CCOc1cc(N2CCN(C3CCN(CCS(C)(=O)=O)CC3)CC2)ccc1Nc1nccc(-c2c(-c3cccc(C(=O)Nc4c(F)cccc4F)c3)nc3ccccn23)n1 [Example 92, N-(2,6-difluorophenyl)-3-[3-(2-{[2-(ethyloxy)-4-(4-{1-[2-(methylsulfonyl)ethyl]-4-piperidinyl}-1-piperazinyl)phenyl]amino]-4-pyrimidinyl)imidazo[1,2-a]pyridin-2-yl]benzamide] |
| < 100 | < 250 | < 100 | COc1cc(N2CCC(N3CCCC3)CC2)ccc1Nc1nccc(-c2c(-c3cccc(C(=O)Nc4c(F)cccc4F)c3)nc3ccccn23)n1 [Example 78, N-(2,6-difluorophenyl)-3-{3-[2-({2-(methyloxy)-4-[4-(1-pyrrolidinyl)-1-piperidinyl]-phenyl}amino)-4-pyrimidinyl]imidazo[1,2-a]pyridin-2-yl}benzamide] |
